Data set [1] is described as follows: Central blood pressure (systolic ventricular pressure) in anesthetized mice. It is filed as in vivo, C57BL/6J mice. As to conditions: 12 mg/kg, i.p. The method, then: SBI-553 treatment was not associated with hypothermia or hypotension. In addition to modulating motivated behavior. […] SBI-553 (at 2-30 mg/kg, i.p.) had no effect on core body temperature (FIG. 6B). […] This was an effect not secondary to hypothermia as body temperature was maintained by thermal support. These findings indicate that a Gq protein-dependent mechanism mediates NTSR1-associated side effects and is not engaged by SBI-553. Consistent with an antagonist like action at NTSR1.

Data set [2] can be described thus: Cocaine- and methamphetamine-induced hyperlocomotion, open field. The class given is in vivo, mice (C57BL/6J background). The conditions noted are these: 12 mg/kg i.p., WT mice. The method, then: Once stable performance was achieved, self-administration was assessed once daily in 60 min sessions. Animals received vehicle (saline, i.p.) or SBI-553 (2, 6, or 12 mg/kg, i.p.) immediately prior to placement into self-administration chambers with access to cocaine at doses of 0.1, 0.3, 0.5, or 1 mg/kg/infusion. FIG. 7B-FIG. 7C show cocaine-induced and methamphetamine-induced hyperlocomotion.
Open-field testing is used to analyze animal movement. The Accuscan open field (Omnitech Electronics, Inc.) was used to assess locomotor activity as previously described (Toth et al., 2018: Slosky L M, et al. (2020)). Here, animal movement is determined by the breaking of gridded photocell beams.
The effect of SBI-553 on cocaine self-administration was both cocaine-dose dependent and SBI-553-dose dependent. […] In the presence of β-arrestin2, SBI-553 reduced activity in mice. A 12 mg/kg (i.p.) dose of SBI-553 decreased both cocaine-and methamphetamine-induced hyperlocomotion in wild-type (WT) mice on a C57BL/6J background (FIG. 7B-FIG. 7C). […] Conversely, a significant reduction in locomotion was absent in global β-arrestin2 KO mice (Slosky L M, et al. (2020) Cell. 181(6):1364-1379e14).

Data set [3] can be described thus: Pharmacokinetics in mouse. It is filed as in vivo.
Data set [4] in a line: Whole body plethysmography (respiratory depression). It is filed as in vivo, mice. The text has this:
Third, plethysmography is used to examine whether SBI-553 and IND ready analog SBI-810 can be administered to mice intraperitoneally, intravenously, or intrathecally without respiratory depression. Using plethysmography determine whether SBI-553 and IND ready analog SBI-810 can be administered to mice (e.g., C57BL6J) intraperitonially, intravenously, or intrathecally without respiratory depression. […] The “Buxco FinePointe Whole Body Plethysmography 4-Site System” was used to assess whether any IND analogs like the SBI-810 in the same system following intraperitoneal, intravenous, or intrathecal administration. Here. C57BL6J mice are assessed using UWBP, a technique that provides a, non-invasive, quantitative means to assess and analyze respiratory parameters. This will include tidal volume, minute volume, inspiratory duty cycle, inspiratory flow rate and the ratio of inspiration time to expiration time using a repeated measures approach to determine lung function on the same animal under multiple treatment conditions.

Data set [5] can be described thus: Rotarod test of motor function. The conditions noted are these: i.t. injection.
Data set [6] concerns the target T1, NTSR1 (Homo sapiens, UniProt P30989). As to the kind of experiment: Confocal β-arrestin2 translocation assay in U2OS cells expressing NTSR1 and β-arrestin2-GFP. It is filed as cell-based. Details: expressed in transfected cells; also transient transfection. The conditions noted are these: compared with NT. The method, then: Scale bar, […]. […] The ordinate axis in counts per minute (CPM) represents specifically bound ^125I-NT. In each experiment, the assays were conducted in quadruplicate, and data are expressed as the mean+SEM (n=4 separate experiments) and were analyzed using one-way ANOVA with Tukey's multiple comparison post hoc test. Curve fitting and statistical analyses were performed using GraphPad Prism V5.04.
The translocation of β-arrestin2 to the membrane by NTSR1 was assessed using a U2OS cell line permanently expressing the NTSR1 and green fluorescent protein (GFP) tagged-β-arrestin2, as described (Barak et al., 2016). Briefly, on day 1, stable cells were split into MGB101-1-2-LG glass-bottom 384-well plates (MatriCal, Spokane, WA, USA). Each well contained 30) mL aliquots of 8,000 cells in Minimum Eagle's medium (MEM) containing 10% fetal bovine serum (FBS) and 100 U/mL penicillin/streptomycin (Life Technologies, Grand Island, NY, USA). The plates were incubated overnight at 37°° C, in 5% CO2, and on the following day the media was changed to […] serum-and phenol red-free MEM. […] After treatment, plates were returned to the incubator for 40 min. […] Images were analyzed using a wavelet algorithm to measure formation of fluorescence aggregates (Evron et al., 2014). […] Analyzed image results were visually confirmed. […]
Target sequence in this assay (P30989 whole entry): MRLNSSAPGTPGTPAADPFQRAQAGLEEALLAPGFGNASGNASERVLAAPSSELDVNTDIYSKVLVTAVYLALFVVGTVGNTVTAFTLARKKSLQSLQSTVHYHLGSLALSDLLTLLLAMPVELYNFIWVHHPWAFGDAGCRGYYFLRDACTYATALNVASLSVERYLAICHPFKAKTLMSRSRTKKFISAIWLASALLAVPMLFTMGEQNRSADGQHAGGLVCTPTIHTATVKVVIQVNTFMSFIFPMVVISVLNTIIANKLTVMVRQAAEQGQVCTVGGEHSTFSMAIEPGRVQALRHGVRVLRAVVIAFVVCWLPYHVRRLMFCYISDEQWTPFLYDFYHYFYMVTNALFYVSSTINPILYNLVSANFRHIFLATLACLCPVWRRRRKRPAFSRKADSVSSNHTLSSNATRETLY
Target sequence in this assay (P32121 whole entry partner): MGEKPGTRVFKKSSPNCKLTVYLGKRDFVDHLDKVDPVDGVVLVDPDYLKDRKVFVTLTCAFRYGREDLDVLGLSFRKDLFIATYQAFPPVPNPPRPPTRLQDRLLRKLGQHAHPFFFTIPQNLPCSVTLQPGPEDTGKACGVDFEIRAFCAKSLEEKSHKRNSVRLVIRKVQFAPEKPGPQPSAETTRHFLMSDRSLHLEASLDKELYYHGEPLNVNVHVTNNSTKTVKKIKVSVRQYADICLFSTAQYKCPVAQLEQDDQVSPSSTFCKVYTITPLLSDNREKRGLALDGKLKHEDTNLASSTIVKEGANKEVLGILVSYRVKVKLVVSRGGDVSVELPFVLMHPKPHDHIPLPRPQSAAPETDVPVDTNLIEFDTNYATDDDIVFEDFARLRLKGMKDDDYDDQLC

The target in data set [7] is T1, NTSR1. As to the kind of experiment: [3H]NTS saturation binding to NTSR1-containing HEK293T cell membranes in absence and presence of SBI-553. Details: expressed in transfected cells; host or cells: HEK293T cell membranes. An excerpt:
FIG. 4A-FIG. 4D show SBI-553 activates NTSR1 to stimulate β-arrestin-associated cellular responses.
Preliminary studies provided significant data for this example. SBI-553 was derived from a medicinal chemistry campaign to improve the ML314 probe series and was selected for potency, pharmacokinetic profile, and selectivity for NTSR1 over the NTSR2 (Pinkerton A B, et al. (2019) J Med Chem. 62(17):8357-8363, which is incorporated by reference for its teachings of the making of SBI-553). […] Binding specificity to NTSR1 was further confirmed by comparing membranes containing an off-target receptor (i.e., b2-adrenergic receptor) (Slosky L M, et al. (2020) Cell. 181(6):1364-1379e14). […] These findings indicate that SBI-553 is a β-arrestin-biased ligand that stimulates β-arrestin-mediated processes at NTSR1 […] without activating Gq protein signaling (FIG. 5).
Target sequence in this assay (P30989 whole entry): as the sequence (P30989 whole entry) above

Take `COc1ccccc1C1CCN(c2nc(C3(F)CC3)nc3ccc(N(C)CCO)cc23)CC1` [SBI-553]: the “Hemodynamic parameters versus vehicle” value in data set [1] was “no differences”. Moreover, in data set [2] (cocaine 30 mg/kg i.p.), the Cocaine-induced hyperlocomotion result is “decreased”. The Methamphetamine-induced hyperlocomotion entry in data set [2] (methamphetamine 2 mg/kg i.p.) was “decreased”. Further, in data set [3] (5 mpk iv (printed tv)), the CIp stood at 2.69 L/h/kg; the Vd – broadly, a proportionality between amount in the body and measured concentration, not a real space – is listed as 6.16 L/kg. In addition, in data set [3] (30 mpk po (pa [sic])), the Cmax (commonly the peak of the concentration-time curve) stood at 1.46 µg/mL and the T2/2 came to 5.28 h. For the same molecule, the Kp at 1 h in data set [3] (brain, 30 mg/kg, 30 mpk po (pa [sic]), 1 h, read-out: brain:plasma @ 1 h) came to 54. Further, the bioavailability (commonly the share of a dose that reaches the circulation, judged against a reference dose that is usually intravenous) in data set [3] (plasma, 30 mg/kg, 5 mpk iv and 30 mpk po) came out at 45%. Also, the AUC (usually concentration integrated over time) in data set [3] (route not marked) was 4.824 µg·h/mL. For the same molecule, the “Breathing frequency or tidal volume” value in data set [4] (on its own) is “had no effect”. Further, the “Reduction in breathing frequency or tidal volume produced by morphine” value in data set [4] (with morphine) is given as “did not exacerbate”. For the same molecule, the “Rotarod testing versus vehicle” value in data set [5] was “no significant difference”. In addition, on NTSR1 [6], the “Intracellular translocation of β-arrestin” value is reported as “as effective as NT”. For the same molecule, the “Effect on total [3H]NTS binding” value at NTSR1 [7] is listed as “increased”. For the same molecule, on NTSR1 [7] (dose-dependent), the “Increase of NTS affinity for NTSR1 (Kd)” value is given as “up to 3.9 fold” and the “Increase of number of available [3H]NTS binding sites (Bmax)” value is given as “up to 3.3 fold”.

For the origin of these results see patent US20240398806A1, “Compositions For and Methods of Treating and/or Preventing Pain” (Duke University, priority 2021, published 2024).
